The text below walks through data of patent US20260284113A1, “COMPOSITIONS AND METHODS FOR TREATING PERIPHERAL VASCULAR DISEASE” (MAYO FOUNDATION FOR MEDICAL EDUCATION AND RESEARCH, priority 2022, published 2026).

This experiment concerns HUVECs. Nature of the experiment: Matrigel tube formation assay. The note with it: HUVECs on Matrigel, six hours; PEP 2.5×10^11 vesicles/mL, VEGF 100 ng/ml. It is filed as cell-based, human. As to the method:
96-well plates (Corning, Inc., Corning, NY) were pre-coated with MATRIGEL (Corning Life Sciences, Corning, NY) and allowed to solidify for one hour at 37° C. before cell seeding. GFP-tagged HUVECs (1×10^4 cells/well) were then added to individual wells in medium designated treatment. Images were acquired at time 0, one hour, three hours, and six hours post-treatment with an inverted microscope (DMI6000 B, Leica Microsystems GmbH, Wetzlar, Germany). All images were analyzed with Angiotool (Zudaire et al., 2011, PLoS One 6:e27385).

With VEGF, the “number of junctions per field” value is 59.75 and the “total length of branches per field” value stood at 2459.59 pixels.
